Activity calls are given as the source filed them. The calls are words filed in the database; no cut-off is given here.
Tests used:
[1] = target: Epidermal growth factor receptor (Homo sapiens, UniProt P00533); assay: Inhibition of wild type EGFR (unknown origin) preincubated for 10 mins followed by substrate addition and measured after 50 mins in presence of ATP by HTRF assay
[2] = target: Epidermal growth factor receptor (Homo sapiens, UniProt P00533, EX19DEL/T790M); assay: Inhibition of EGFR Del19/T790M (unknown origin) preincubated for 10 mins followed by substrate addition and measured after 50 mins in presence of ATP by HTRF assay
[3] = target: Epidermal growth factor receptor (Homo sapiens, UniProt P00533, C797S/L858R/T790M); assay: Inhibition of EGFR L858R/T790M/C797S triple mutant (unknown origin) preincubated for 10 mins followed by substrate addition and measured after 50 mins in presence of ATP by HTRF assay
Chain of Epidermal growth factor receptor (Homo sapiens, UniProt P00533, C797S/L858R/T790M) (P00533 25-1210 T790M/C797S/L858R limits assumed): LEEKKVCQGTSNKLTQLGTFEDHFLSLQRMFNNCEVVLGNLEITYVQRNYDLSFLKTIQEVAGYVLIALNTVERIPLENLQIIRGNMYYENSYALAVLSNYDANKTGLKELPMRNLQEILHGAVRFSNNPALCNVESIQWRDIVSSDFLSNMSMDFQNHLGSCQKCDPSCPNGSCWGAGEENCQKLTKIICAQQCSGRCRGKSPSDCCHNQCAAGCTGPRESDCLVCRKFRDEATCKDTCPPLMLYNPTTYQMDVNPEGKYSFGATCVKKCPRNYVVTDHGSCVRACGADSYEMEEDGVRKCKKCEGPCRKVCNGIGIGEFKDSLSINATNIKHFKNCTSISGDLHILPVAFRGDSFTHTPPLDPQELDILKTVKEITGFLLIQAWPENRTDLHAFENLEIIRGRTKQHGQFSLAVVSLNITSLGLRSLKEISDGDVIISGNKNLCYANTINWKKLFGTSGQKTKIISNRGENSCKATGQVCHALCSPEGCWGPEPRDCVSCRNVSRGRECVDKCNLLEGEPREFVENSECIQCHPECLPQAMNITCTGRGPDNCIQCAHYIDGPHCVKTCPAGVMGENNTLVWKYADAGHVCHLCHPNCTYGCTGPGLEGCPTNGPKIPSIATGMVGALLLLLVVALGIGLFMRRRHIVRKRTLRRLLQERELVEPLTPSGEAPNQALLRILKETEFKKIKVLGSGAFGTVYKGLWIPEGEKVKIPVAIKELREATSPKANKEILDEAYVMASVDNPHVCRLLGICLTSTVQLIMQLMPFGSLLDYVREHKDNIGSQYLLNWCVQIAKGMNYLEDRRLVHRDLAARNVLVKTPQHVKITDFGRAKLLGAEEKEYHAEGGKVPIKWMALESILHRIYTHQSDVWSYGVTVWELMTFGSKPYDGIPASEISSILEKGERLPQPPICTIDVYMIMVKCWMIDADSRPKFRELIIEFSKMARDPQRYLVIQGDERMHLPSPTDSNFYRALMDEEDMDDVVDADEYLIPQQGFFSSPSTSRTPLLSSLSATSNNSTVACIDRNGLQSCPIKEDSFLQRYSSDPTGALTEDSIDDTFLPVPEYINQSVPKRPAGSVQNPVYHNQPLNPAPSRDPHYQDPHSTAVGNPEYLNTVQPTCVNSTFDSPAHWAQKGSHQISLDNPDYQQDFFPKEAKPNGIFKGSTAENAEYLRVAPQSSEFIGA

[4] = target: Tyrosine-protein kinase BTK (Homo sapiens) (UniProt Q06187); assay: Inhibition of BTK (unknown origin) by HTRF assay relative to control; conditions: concentration not given here
Chain of Tyrosine-protein kinase BTK (Homo sapiens) (Q06187 whole entry): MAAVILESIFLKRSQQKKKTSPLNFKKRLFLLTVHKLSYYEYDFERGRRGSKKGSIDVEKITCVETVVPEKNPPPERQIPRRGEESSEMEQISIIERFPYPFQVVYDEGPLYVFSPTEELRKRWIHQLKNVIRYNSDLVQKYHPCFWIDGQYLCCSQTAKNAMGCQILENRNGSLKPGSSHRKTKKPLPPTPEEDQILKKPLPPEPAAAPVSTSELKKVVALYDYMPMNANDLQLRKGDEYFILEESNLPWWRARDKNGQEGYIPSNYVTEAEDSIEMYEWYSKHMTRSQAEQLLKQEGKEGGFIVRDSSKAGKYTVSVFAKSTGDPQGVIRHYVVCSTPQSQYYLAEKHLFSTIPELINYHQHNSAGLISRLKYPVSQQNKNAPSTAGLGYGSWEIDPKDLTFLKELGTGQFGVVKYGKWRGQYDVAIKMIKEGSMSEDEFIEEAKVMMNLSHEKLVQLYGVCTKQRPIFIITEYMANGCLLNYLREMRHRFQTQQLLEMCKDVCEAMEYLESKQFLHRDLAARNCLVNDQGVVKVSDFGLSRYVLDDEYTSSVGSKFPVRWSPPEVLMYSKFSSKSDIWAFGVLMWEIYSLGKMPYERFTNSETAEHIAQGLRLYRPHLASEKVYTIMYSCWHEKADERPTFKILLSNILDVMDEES

[5] = species on record: Homo sapiens; assay: Inhibition of FGFR (unknown origin) by HTRF assay relative to control; conditions: concentration not given here
[6] = target: Insulin-like growth factor 1 receptor (Homo sapiens) (UniProt P08069); assay: Inhibition of IGF-1R (unknown origin) by HTRF assay relative to control; conditions: concentration not given here
Chain of Insulin-like growth factor 1 receptor (Homo sapiens) (P08069 31-736 limits assumed): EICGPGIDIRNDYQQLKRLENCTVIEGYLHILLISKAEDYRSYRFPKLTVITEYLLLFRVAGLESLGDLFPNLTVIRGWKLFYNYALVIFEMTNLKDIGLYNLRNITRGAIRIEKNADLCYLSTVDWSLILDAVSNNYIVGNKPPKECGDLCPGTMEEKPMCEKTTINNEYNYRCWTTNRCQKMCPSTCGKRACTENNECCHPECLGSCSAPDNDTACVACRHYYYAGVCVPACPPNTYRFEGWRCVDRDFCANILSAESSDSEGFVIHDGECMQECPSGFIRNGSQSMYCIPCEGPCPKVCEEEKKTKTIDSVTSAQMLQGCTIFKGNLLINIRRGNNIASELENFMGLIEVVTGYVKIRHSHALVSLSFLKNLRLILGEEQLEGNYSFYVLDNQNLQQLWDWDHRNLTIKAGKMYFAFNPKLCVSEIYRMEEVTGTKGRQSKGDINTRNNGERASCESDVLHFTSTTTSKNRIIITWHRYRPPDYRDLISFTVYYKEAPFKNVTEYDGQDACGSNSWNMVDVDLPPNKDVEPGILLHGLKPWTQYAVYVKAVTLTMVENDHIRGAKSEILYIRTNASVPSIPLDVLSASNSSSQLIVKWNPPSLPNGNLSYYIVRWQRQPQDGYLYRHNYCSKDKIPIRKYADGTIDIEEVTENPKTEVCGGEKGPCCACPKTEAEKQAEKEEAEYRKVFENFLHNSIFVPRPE
Chain of Insulin-like growth factor 1 receptor (Homo sapiens) (P08069 741-1367 limits assumed): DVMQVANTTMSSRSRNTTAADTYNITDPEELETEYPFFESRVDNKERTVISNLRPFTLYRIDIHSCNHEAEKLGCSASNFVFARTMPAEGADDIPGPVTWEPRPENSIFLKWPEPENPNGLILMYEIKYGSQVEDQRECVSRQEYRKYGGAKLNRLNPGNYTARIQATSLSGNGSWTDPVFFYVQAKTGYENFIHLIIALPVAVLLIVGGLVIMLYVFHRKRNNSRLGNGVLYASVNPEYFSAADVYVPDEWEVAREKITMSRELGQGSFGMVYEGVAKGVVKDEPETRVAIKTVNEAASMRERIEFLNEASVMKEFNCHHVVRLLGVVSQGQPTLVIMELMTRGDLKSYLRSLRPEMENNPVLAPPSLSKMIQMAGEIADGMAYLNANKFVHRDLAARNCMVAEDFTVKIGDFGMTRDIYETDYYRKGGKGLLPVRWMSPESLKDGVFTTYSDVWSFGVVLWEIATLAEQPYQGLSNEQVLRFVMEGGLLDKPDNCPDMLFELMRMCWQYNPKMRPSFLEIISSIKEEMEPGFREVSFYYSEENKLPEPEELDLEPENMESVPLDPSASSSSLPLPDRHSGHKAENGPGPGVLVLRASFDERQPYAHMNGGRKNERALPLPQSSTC

[7] = target: Dual specificity mitogen-activated protein kinase kinase; MEK1/2 (Homo sapiens) (UniProt P36507+Q02750); assay: Inhibition of MEK1/2 (unknown origin) by HTRF assay relative to control; assay type: protein assay; conditions: concentration not given here
Chain of Dual specificity mitogen-activated protein kinase kinase; MEK1/2 (Homo sapiens) (P36507 whole entry, looked up): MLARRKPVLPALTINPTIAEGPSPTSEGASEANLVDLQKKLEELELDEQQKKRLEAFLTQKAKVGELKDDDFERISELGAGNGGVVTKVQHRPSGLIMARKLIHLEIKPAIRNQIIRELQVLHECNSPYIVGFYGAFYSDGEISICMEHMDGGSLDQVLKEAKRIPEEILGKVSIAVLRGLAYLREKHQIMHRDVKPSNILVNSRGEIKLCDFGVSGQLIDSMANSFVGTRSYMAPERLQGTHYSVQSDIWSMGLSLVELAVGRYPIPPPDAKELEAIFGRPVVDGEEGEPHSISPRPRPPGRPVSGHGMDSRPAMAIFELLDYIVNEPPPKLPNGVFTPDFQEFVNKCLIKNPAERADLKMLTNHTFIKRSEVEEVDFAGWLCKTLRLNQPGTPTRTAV
Chain of Dual specificity mitogen-activated protein kinase kinase; MEK1/2 (Homo sapiens) (Q02750 whole entry, looked up): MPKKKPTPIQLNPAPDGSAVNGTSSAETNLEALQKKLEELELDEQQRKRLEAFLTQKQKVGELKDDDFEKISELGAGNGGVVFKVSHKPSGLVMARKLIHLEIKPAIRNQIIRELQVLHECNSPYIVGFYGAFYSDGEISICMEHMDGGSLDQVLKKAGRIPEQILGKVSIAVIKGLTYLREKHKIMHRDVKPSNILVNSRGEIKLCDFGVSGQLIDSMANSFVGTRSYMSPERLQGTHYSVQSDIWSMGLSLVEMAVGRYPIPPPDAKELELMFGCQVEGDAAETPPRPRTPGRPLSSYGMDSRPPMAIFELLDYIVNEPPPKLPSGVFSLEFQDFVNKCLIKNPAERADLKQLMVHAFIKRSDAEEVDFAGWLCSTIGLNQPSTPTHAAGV

[8] = target: Serine/threonine-protein kinase mTOR (Homo sapiens) (UniProt P42345); assay: Inhibition of mTOR (unknown origin) by HTRF assay relative to control; conditions: concentration not given here
[9] = Cytotoxicity against human 2BS cells assessed as inhibition of cell viability measured after 72 hrs by MTT assay; assay type: toxicity, cell-based
[10] = tested on: HCC827; assay: Inhibition of colony formation in human HCC827 cells measured after 14 days by crystal violet staining based analysis; assay type: functional, cell-based; conditions: HCC827, 336 h
[11] = tested on: HCC827; assay: Inhibition of colony formation in human HCC827 cells at 10 to 30 nM measured after 14 days by crystal violet staining based analysis; assay type: functional, cell-based; conditions: dose 10-30 nM, time 14.0 day
[12] = tested on: HCC827; assay: Inhibition of colony formation in human HCC827 cells at 100 nM measured after 14 days by crystal violet staining based analysis relative to control; assay type: functional; conditions: HCC827, 336 h, time 14 day
[13] = tested on: HCC827; assay: Induction of cell cycle arrest in human HCC827 cells assessed as accumulation of cells at G0/G1 phase at 30 nM measured after 24 hrs by PI staining based flow cytometry analysis (reference value: 54.36%); assay type: functional
[14] = tested on: HCC827; assay: Induction of cell cycle arrest in human HCC827 cells assessed as accumulation of cells at S phase at 10 nM measured after 24 hrs by PI staining based flow cytometry analysis (reference value: 28.81%); assay type: functional
[15] = tested on: HCC827; assay: Induction of cell cycle arrest in human HCC827 cells assessed as accumulation of cells at G2/M phase at 30 nM measured after 24 hrs by PI staining based flow cytometry analysis (reference value: 16.83%); assay type: functional
[16] = tested on: HCC827; assay: Induction of apoptosis in human HCC827 cells assessed as viable cells at 10 nM measured after 24 hrs by annexin V/PI staining based flu cytometry analysis (reference value: 84.0%); assay type: functional; conditions: read-out: Activity
[17] = tested on: HCC827; assay: Induction of apoptosis in human HCC827 cells assessed as viable cells at 30 nM measured after 24 hrs by annexin V/PI staining based flu cytometry analysis (reference value: 84.0%); assay type: functional; conditions: read-out: Activity
[18] = tested on: HCC827; assay: Induction of apoptosis in human HCC827 cells assessed as viable cells at 100 nM measured after 24 hrs by annexin V/PI staining based flu cytometry analysis (reference value: 84.0%); assay type: functional; conditions: read-out: Activity
[19] = tested on: HCC827; assay: Induction of apoptosis in human HCC827 cells assessed as early apoptotic cells at 30 nM measured after 24 hrs by annexin V/PI staining based flu cytometry analysis (reference value: 3.2%); assay type: functional
[20] = tested on: HCC827; assay: Induction of apoptosis in human HCC827 cells assessed as late apoptotic cells at 30 nM measured after 24 hrs by annexin V/PI staining based flu cytometry analysis (reference value: 5.50%); assay type: functional
[21] = tested on: HCC827; assay: Induction of apoptosis in human HCC827 cells assessed as necrotic cells at 100 nM measured after 24 hrs by annexin V/PI staining based flu cytometry analysis (reference value: 7.34%); assay type: functional
[22] = target: Mitogen-activated protein kinase; ERK1/ERK2 (Homo sapiens) (UniProt P27361+P28482); assay: Inhibition of ERK1/2 phosphorylation (unknown origin) at 100 nM by Western blotting analysis; assay type: protein assay
Chain of Mitogen-activated protein kinase; ERK1/ERK2 (Homo sapiens) (P27361 whole entry, looked up): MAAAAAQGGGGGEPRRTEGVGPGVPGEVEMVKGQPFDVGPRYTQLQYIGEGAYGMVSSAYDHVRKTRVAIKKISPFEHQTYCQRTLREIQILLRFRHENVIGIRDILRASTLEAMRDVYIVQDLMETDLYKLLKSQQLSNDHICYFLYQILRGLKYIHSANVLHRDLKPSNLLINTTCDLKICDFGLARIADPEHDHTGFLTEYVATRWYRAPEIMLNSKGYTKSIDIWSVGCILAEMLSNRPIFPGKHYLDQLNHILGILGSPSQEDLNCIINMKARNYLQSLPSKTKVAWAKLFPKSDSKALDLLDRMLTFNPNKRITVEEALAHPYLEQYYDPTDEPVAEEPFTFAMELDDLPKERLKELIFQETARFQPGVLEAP
Chain of Mitogen-activated protein kinase; ERK1/ERK2 (Homo sapiens) (P28482 whole entry, looked up): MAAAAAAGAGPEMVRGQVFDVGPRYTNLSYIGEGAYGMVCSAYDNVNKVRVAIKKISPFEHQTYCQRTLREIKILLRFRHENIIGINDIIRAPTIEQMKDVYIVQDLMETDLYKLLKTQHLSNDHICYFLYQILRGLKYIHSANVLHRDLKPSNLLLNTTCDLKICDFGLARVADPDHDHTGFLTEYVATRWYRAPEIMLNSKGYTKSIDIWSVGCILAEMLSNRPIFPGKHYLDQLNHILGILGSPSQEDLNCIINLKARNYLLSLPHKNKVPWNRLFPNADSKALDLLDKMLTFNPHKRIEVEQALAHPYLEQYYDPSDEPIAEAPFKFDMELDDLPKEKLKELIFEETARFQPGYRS

[23] = species on record: Homo sapiens; assay: Inhibition of AKT phosphorylation (unknown origin) at 100 nM by Western blotting analysis
[24] = tested on: HCC827; assay: Induction of apoptosis in human HCC827 cells assessed as activation of PARP level measured after 48 hrs by Western blot analysis; assay type: functional, cell-based; conditions: dose 10-400 nM
[25] = tested on: HCC827; assay: Induction of apoptosis in human HCC827 cells assessed as activation of caspase-3 level measured after 48 hrs by Western blot analysis; assay type: functional, cell-based; conditions: dose 10-400 nM
[26] = tested on: HCC827; assay: Induction of apoptosis in human HCC827 cells assessed as activation of cleaved-caspase-3 level measured after 48 hrs by Western blot analysis; assay type: functional, cell-based; conditions: dose 10-400 nM
[27] = tested on: HCC827; assay: Antitumor activity against human HCC827 cells xenografted in BALB/c nude mouse assessed as tumor growth inhibition at 10 mg/kg/day, po measured every three days for 21 days by vernier caliper based analysis relative to control; assay type: functional; conditions: HCC827, 504 h, time 21 day, read-out: TGI
[28] = tested on: HCC827; assay: Antitumor activity against human HCC827 cells xenografted in BALB/c nude mouse assessed as tumor growth inhibition at 50 mg/kg/day, po measured every three days for 21 days by vernier caliper based analysis relative to control; assay type: functional; conditions: HCC827, 504 h, time 21 day, read-out: TGI
[29] = Toxicity in BALB/c nude mouse assessed as effect on body weight loss at 10 to 50 mg/kg/day, po measured every three days for 21 days; assay type: organism-based; conditions: in vivo, 504 h, dose 10-50 mg/kg/day, time 21 day

In the case of O=C(NO)c1sccc1Nc1nc(Nc2ccc(N3CCOCC3)cc2)ncc1Cl, the IC50 [1] is reported as 16.2 nM, the IC50 [2] is reported as 214 nM and the IC50 [3] is reported as 11.8 nM. The inhibition [4] was under 70%, the inhibition [5] was under 70% and the inhibition [6] was under 70%. It also gave an inhibition [7] of under 70%, an inhibition [8] of under 70% and an IC50 at 72 h [9] of 24.6 µM. For the same molecule, the IC50 [10] was 24.6 nM, the inhibition [11] was “Active” and the inhibition at 0.1 µM [12] was 100%. For the same molecule, the Activity [13] was 68.63%, the Activity [14] was 16.41% and the Activity [15] was 19.06%. For the same molecule, the viability at 0.01 µM [16] was 77.6%, the viability at 0.03 µM [17] was 70.7% and the viability at 0.1 µM [18] was 76%. For the same molecule, the Activity [19] was 11.4%, the Activity [20] was 10.4% and the Activity [21] was 6.32%. For the same molecule, the inhibition [22] was “Active”, the inhibition [23] was “Active” and the Activity [24] was “Dose-Dependent Effect”. The Activity [25] was “Dose-Dependent Effect”, the Activity [26] was “Dose-Dependent Effect” and the inhibition in vivo at 10 mg/kg/day [27] was 50.6%. The inhibition in vivo at 50 mg/kg/day [28] was 89.5% and the Activity [29] was “Non-Toxic”.

— ChEMBL document CHEMBL5518185, “Design, synthesis and antitumor activity of 4-arylamine substituted pyrimidine derivatives as noncovalent EGFR inhibitors overcoming C797S mutation” (Eur J Med Chem, 2024)
